Our source for the TGI values is PubChem BioAssay (NCI).

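Cells were grown in 96-well plates and exposed to each compound for 48 hours at five concentrations; endpoints were interpolated linearly between bracketing concentrations, or set to the highest concentration if not reached. TGI is the concentration that stops growth completely.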

One assay concerns 786-0 renal. The assay is described as follows: NCI anticancer screen, dose series, 48 h.
In turn, `CSc1ncnc2c1cnn2CCCCO` yielded a TGI of more than 100 µM.
Turning to `CC(NNC(=O)CC(=O)N(C(=O)c1ccccc1)c1ccc(Cl)cc1)c1cc2ccccc2oc1=O` (stereo not given), the TGI is more than 10 µM.
Same read-out and setting: the value for `O=C(NC(CO)Cc1ccc(Oc2cc(CC(CO)NC(=O)OCc3ccccc3)ccc2OC(=O)OCc2ccccc2)cc1)OCc1ccccc1` (stereo not given) was more than 100 µM.
`COc1ccc(-c2c(C#N)c(O)n(NS(=O)(=O)c3ccc(C)cc3)c(=O)c2C#N)cc1` showed a TGI of more than 100 µM.
Molecule `CN1C(=O)C(CC=O)(C(C)(C)C)c2ccccc21` (stereo not given) had a TGI of more than 100 µM.
As for `CN(CCN(C)C(=S)NN)C(=S)NN`, the TGI is more than 100 µM.
`CSc1nncc2[nH]c(C)nc12`: the TGI was more than 100 µM.
On the same count and under the same terms, the value for `COc1ccc(CCN=C2OCc3ccccc32)cc1OC` was more than 100 µM.
Take `CCCCn1c(C)c2c(c1C)C(=O)N(CC(O)CN1CCc3ccccc3C1)C2=O` (stereo not given): the TGI is more than 100 µM.
The molecule `Oc1ccc(-c2nc(-c3ccc(F)cc3)c(-c3ccc4ccccc4n3)[nH]2)cc1` returned a TGI of 66 µM.
On the same count and under the same terms, under `CC(=O)Nc1ccc(-c2nc3ccccc3s2)cc1` stands 64.8 µM; under `COc1ccc(-c2nc(SCC(=O)N/N=C/c3ccc(O)c(OC)c3)[nH]c2-c2ccc(OC)cc2)cc1`, 42 µM.
In turn, `COC(=O)c1c(O)ccc2c1c1c(n2Cc2ccc(Cl)cc2Cl)C(=O)c2ccccc2C1` showed a TGI of more than 100 µM.
For `CC(/C=N\NC(=S)N1CCCCC1)=N/NC(=S)N1CCCCC1`, the TGI turned out to be 13.2 µM.
In the case of `CCOC(=O)c1cc(C2(O)CCN(CC(C)CC)C2=O)c(-c2cc(C)no2)[nH]1` (stereo not given), the TGI is more than 100 µM.

The next assay relates to A498 renal. In words: NCI anticancer screen, dose series, 48 h.
For the molecule `CCOC(=O)c1csc(NC(=O)CN2CCN(C)CC2)n1`, the TGI was more than 100 µM.
`CSc1ncnc2c1cnn2CCCCO` returned a TGI of more than 100 µM.
Turning to `CC(NNC(=O)CC(=O)N(C(=O)c1ccccc1)c1ccc(Cl)cc1)c1cc2ccccc2oc1=O` (stereo not given), the TGI was more than 10 µM.
As to `O=C(NC(CO)Cc1ccc(Oc2cc(CC(CO)NC(=O)OCc3ccccc3)ccc2OC(=O)OCc2ccccc2)cc1)OCc1ccccc1` (stereo not given), the TGI came to 50.2 µM.
The molecule `COc1ccc(-c2c(C#N)c(O)n(NS(=O)(=O)c3ccc(C)cc3)c(=O)c2C#N)cc1` registered a TGI of more than 100 µM.
The same measure, in the same setting: the value for `CN1C(=O)C(CC=O)(C(C)(C)C)c2ccccc21` (stereo not given) was more than 100 µM; that for `CSc1nncc2[nH]c(C)nc12` was more than 100 µM; that for `COc1ccc(CCN=C2OCc3ccccc32)cc1OC` was more than 100 µM.
On the same count and under the same terms, under `CCCCn1c(C)c2c(c1C)C(=O)N(CC(O)CN1CCc3ccccc3C1)C2=O` (stereo not given) stands more than 100 µM; under `CC(=O)Nc1ccc(-c2nc3ccccc3s2)cc1`, 38.4 µM; under `COc1ccc(-c2nc(SCC(=O)N/N=C/c3ccc(O)c(OC)c3)[nH]c2-c2ccc(OC)cc2)cc1`, 33.2 µM.
For `COC(=O)c1c(O)ccc2c1c1c(n2Cc2ccc(Cl)cc2Cl)C(=O)c2ccccc2C1`, the TGI is more than 100 µM.
Take `CC(/C=N\NC(=S)N1CCCCC1)=N/NC(=S)N1CCCCC1`: the TGI amounted to 3.59 µM.
On to `CCOC(=O)c1cc(C2(O)CCN(CC(C)CC)C2=O)c(-c2cc(C)no2)[nH]1` (stereo not given), for which the TGI was more than 100 µM.

In a further assay the test system is CAKI-1 renal. The assay is described as follows: NCI anticancer screen, dose series, 48 h.
`CCOC(=O)c1csc(NC(=O)CN2CCN(C)CC2)n1` had a TGI of more than 100 µM.
As to `CSc1ncnc2c1cnn2CCCCO`, the TGI was more than 100 µM.
Molecule `CC(NNC(=O)CC(=O)N(C(=O)c1ccccc1)c1ccc(Cl)cc1)c1cc2ccccc2oc1=O` (stereo not given) registered a TGI of more than 10 µM.
Consider `O=C(NC(CO)Cc1ccc(Oc2cc(CC(CO)NC(=O)OCc3ccccc3)ccc2OC(=O)OCc2ccccc2)cc1)OCc1ccccc1` (stereo not given), for which the TGI was more than 100 µM.
`COc1ccc(-c2c(C#N)c(O)n(NS(=O)(=O)c3ccc(C)cc3)c(=O)c2C#N)cc1` came in with a TGI of more than 100 µM.
Still for that read-out and setting: the value for `CN1C(=O)C(CC=O)(C(C)(C)C)c2ccccc21` (stereo not given) was more than 100 µM; that for `CN(CCN(C)C(=S)NN)C(=S)NN` was more than 100 µM; that for `CSc1nncc2[nH]c(C)nc12` was more than 100 µM.
`COc1ccc(CCN=C2OCc3ccccc32)cc1OC` showed a TGI of more than 100 µM.
The molecule `CCCCn1c(C)c2c(c1C)C(=O)N(CC(O)CN1CCc3ccccc3C1)C2=O` (stereo not given) returned a TGI of more than 100 µM.
`Oc1ccc(-c2nc(-c3ccc(F)cc3)c(-c3ccc4ccccc4n3)[nH]2)cc1` returned a TGI of 31.3 µM.
Molecule `CC(=O)Nc1ccc(-c2nc3ccccc3s2)cc1` gave a TGI of 53.8 µM.
In turn, `COc1ccc(-c2nc(SCC(=O)N/N=C/c3ccc(O)c(OC)c3)[nH]c2-c2ccc(OC)cc2)cc1` gave a TGI of more than 100 µM.
`CC(/C=N\NC(=S)N1CCCCC1)=N/NC(=S)N1CCCCC1` showed a TGI of 10.7 µM.
Turning to `CCOC(=O)c1cc(C2(O)CCN(CC(C)CC)C2=O)c(-c2cc(C)no2)[nH]1` (stereo not given), the TGI was more than 100 µM.

Another assay concerns CCRF-CEM leukemia. The assay is described as follows: NCI anticancer screen, dose series, 48 h.
Molecule `CCOC(=O)c1csc(NC(=O)CN2CCN(C)CC2)n1` gave a TGI of more than 100 µM.
Consider `CSc1ncnc2c1cnn2CCCCO`, for which the TGI is more than 100 µM.
Still for that read-out and setting: under `CC(NNC(=O)CC(=O)N(C(=O)c1ccccc1)c1ccc(Cl)cc1)c1cc2ccccc2oc1=O` (stereo not given) stands more than 10 µM; under `O=C(NC(CO)Cc1ccc(Oc2cc(CC(CO)NC(=O)OCc3ccccc3)ccc2OC(=O)OCc2ccccc2)cc1)OCc1ccccc1` (stereo not given), more than 100 µM.
Turning to `COc1ccc(-c2c(C#N)c(O)n(NS(=O)(=O)c3ccc(C)cc3)c(=O)c2C#N)cc1`, the TGI is more than 100 µM.
Consider `CN1C(=O)C(CC=O)(C(C)(C)C)c2ccccc21` (stereo not given), for which the TGI was more than 100 µM.
On to `CN(CCN(C)C(=S)NN)C(=S)NN`, for which the TGI is more than 100 µM.
On to `CSc1nncc2[nH]c(C)nc12`, for which the TGI is more than 100 µM.
`COc1ccc(CCN=C2OCc3ccccc32)cc1OC` had a TGI of more than 100 µM.
The molecule `CCCCn1c(C)c2c(c1C)C(=O)N(CC(O)CN1CCc3ccccc3C1)C2=O` (stereo not given) had a TGI of more than 100 µM.
`Oc1ccc(-c2nc(-c3ccc(F)cc3)c(-c3ccc4ccccc4n3)[nH]2)cc1` gave a TGI of more than 100 µM.
In the case of `CC(=O)Nc1ccc(-c2nc3ccccc3s2)cc1`, the TGI is more than 100 µM.
With `COc1ccc(-c2nc(SCC(=O)N/N=C/c3ccc(O)c(OC)c3)[nH]c2-c2ccc(OC)cc2)cc1`, the TGI turned out to be 92.2 µM.
`COC(=O)c1c(O)ccc2c1c1c(n2Cc2ccc(Cl)cc2Cl)C(=O)c2ccccc2C1` yielded a TGI of 71.3 µM.
Molecule `CCOC(=O)c1cc(C2(O)CCN(CC(C)CC)C2=O)c(-c2cc(C)no2)[nH]1` (stereo not given) registered a TGI of more than 100 µM.

The next assay concerns COLO 205 colon. In words: NCI anticancer screen, dose series, 48 h.
Molecule `CCOC(=O)c1csc(NC(=O)CN2CCN(C)CC2)n1` yielded a TGI of more than 100 µM.
Same read-out and setting: the value for `CSc1ncnc2c1cnn2CCCCO` was more than 100 µM; that for `CC(NNC(=O)CC(=O)N(C(=O)c1ccccc1)c1ccc(Cl)cc1)c1cc2ccccc2oc1=O` (stereo not given) was more than 10 µM; that for `O=C(NC(CO)Cc1ccc(Oc2cc(CC(CO)NC(=O)OCc3ccccc3)ccc2OC(=O)OCc2ccccc2)cc1)OCc1ccccc1` (stereo not given) was 36 µM.
`COc1ccc(-c2c(C#N)c(O)n(NS(=O)(=O)c3ccc(C)cc3)c(=O)c2C#N)cc1` displayed a TGI of more than 100 µM.
Still for that read-out and setting: the value for `CN1C(=O)C(CC=O)(C(C)(C)C)c2ccccc21` (stereo not given) was more than 100 µM; that for `CN(CCN(C)C(=S)NN)C(=S)NN` was more than 100 µM; that for `CSc1nncc2[nH]c(C)nc12` was more than 100 µM.
The same measure, in the same setting: the value for `COc1ccc(CCN=C2OCc3ccccc32)cc1OC` was more than 100 µM.
Consider `CCCCn1c(C)c2c(c1C)C(=O)N(CC(O)CN1CCc3ccccc3C1)C2=O` (stereo not given), for which the TGI was more than 100 µM.
In turn, `Oc1ccc(-c2nc(-c3ccc(F)cc3)c(-c3ccc4ccccc4n3)[nH]2)cc1` displayed a TGI of 29.7 µM.
